The structures appear in SMILES notation. Where a name gives a salt, the structure may show the parent alone. Activity calls are given as the source filed them. Rule as the data show it, for most assays here: actives have a measured Kd and inactives only a lower limit. Where only a bound is given, the exact number is not on record here.

The results in this text go back to ChEMBL document CHEMBL3991601, “The target landscape of clinical kinase drugs” (Science, 2017).

In assay [1] the target is T1, Serine/threonine-protein kinase Chk1 (Homo sapiens, UniProt O14757).
T1 sequence (O14757 whole entry): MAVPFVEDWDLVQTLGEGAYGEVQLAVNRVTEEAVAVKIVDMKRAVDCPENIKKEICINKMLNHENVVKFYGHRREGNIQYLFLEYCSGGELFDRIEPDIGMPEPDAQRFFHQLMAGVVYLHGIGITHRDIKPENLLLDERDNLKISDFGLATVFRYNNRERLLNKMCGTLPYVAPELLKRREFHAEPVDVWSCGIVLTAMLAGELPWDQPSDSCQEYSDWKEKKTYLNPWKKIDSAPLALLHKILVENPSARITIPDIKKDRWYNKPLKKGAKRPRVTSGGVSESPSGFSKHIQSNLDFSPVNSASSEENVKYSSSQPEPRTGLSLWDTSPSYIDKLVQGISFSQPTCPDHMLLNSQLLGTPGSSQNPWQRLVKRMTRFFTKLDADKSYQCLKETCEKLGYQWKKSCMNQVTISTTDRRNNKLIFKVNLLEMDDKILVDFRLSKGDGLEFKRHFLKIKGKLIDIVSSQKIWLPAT

Assay [2] has as its target Casein kinase I isoform gamma-1 (Homo sapiens, UniProt Q9HCP0).
Assay [3] has as its target T2, Dynamin-like GTPase OPA1, mitochondrial (Homo sapiens, UniProt O60313).
T2 sequence (O60313 whole entry): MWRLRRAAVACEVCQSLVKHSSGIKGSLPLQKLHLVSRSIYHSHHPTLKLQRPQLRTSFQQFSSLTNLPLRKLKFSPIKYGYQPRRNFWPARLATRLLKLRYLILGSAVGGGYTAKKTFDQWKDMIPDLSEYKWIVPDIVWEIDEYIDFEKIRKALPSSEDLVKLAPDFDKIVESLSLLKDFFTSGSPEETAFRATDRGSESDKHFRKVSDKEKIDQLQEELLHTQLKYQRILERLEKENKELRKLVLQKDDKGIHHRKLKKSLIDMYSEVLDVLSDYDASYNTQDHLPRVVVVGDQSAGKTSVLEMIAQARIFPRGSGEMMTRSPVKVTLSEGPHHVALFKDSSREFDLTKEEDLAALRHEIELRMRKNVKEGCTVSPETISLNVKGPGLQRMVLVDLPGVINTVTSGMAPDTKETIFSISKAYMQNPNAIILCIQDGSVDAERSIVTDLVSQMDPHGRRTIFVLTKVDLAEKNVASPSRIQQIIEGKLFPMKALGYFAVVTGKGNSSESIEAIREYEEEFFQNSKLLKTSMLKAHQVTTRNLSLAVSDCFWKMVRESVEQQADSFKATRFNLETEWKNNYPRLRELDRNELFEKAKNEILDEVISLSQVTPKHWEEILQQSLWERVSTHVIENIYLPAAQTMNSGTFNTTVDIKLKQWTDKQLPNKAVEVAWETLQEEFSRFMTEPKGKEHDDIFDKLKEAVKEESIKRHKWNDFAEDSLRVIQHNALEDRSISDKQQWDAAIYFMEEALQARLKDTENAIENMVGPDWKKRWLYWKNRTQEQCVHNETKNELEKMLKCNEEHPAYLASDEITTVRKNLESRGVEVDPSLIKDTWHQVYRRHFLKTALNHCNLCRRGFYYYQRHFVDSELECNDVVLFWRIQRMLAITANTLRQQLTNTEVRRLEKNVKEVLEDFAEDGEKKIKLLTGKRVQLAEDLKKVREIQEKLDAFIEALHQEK

Assay [4] addresses T3, Serine/threonine-protein kinase TAO2 (Homo sapiens, UniProt Q9UL54).
T3 sequence (Q9UL54 whole entry): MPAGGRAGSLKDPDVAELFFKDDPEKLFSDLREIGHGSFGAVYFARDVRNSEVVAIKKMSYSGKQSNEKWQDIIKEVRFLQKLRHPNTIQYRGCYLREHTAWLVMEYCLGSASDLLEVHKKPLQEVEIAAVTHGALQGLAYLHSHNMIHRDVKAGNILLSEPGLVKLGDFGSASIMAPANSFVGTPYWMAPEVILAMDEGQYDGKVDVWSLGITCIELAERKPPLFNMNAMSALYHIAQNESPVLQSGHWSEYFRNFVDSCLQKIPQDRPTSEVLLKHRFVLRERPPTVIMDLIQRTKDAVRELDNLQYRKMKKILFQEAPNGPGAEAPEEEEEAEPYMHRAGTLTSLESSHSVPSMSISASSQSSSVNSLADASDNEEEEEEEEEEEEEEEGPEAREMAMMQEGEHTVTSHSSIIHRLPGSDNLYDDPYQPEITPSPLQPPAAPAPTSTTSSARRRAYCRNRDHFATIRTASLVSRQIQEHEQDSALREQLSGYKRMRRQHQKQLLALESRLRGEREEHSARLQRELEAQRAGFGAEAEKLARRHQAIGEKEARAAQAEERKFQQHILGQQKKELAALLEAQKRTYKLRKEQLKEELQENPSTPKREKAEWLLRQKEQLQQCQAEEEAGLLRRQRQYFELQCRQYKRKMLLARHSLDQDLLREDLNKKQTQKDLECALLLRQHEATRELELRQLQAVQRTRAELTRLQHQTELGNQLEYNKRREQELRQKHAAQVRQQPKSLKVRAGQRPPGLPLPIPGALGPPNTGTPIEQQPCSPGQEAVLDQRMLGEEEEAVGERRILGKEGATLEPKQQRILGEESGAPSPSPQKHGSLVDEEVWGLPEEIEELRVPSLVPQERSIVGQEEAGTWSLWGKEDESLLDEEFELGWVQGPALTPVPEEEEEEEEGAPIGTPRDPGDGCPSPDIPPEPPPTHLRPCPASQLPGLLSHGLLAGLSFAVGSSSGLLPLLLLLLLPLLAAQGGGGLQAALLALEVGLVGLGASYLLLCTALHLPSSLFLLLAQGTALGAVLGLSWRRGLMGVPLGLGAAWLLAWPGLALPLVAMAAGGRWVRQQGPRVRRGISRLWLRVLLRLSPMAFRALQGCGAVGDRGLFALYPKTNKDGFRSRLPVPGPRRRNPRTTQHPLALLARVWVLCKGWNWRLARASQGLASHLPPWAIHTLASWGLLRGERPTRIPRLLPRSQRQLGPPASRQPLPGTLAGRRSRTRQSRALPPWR

Assay [5] concerns the target Macrophage-stimulating protein receptor (Homo sapiens, UniProt Q04912).
Also: in the data inactive means no Kd found up to 30 µM.

Chain of Casein kinase I isoform gamma-1 (Q9HCP0 whole entry, canonical isoform): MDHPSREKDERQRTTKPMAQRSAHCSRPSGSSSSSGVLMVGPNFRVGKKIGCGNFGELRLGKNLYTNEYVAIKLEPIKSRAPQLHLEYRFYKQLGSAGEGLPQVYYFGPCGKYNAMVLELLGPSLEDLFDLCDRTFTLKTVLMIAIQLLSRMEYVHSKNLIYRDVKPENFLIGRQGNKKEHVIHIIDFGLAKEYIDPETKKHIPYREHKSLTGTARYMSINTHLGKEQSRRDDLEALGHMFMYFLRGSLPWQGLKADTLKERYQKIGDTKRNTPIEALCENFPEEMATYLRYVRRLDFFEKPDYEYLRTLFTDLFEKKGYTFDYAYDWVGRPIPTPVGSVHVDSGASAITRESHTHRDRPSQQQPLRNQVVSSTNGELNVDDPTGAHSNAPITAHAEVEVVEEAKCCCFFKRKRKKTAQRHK
Chain of Macrophage-stimulating protein receptor (Q04912 25-304 limits assumed): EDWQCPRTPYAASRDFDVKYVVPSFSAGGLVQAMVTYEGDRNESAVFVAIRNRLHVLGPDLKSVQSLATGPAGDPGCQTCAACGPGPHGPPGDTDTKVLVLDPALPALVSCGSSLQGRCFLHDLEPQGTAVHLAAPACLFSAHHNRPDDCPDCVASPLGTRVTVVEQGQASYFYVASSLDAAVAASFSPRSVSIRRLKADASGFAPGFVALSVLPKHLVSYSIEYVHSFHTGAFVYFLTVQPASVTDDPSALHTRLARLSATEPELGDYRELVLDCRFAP
Chain of Macrophage-stimulating protein receptor (Q04912 310-1400 limits assumed): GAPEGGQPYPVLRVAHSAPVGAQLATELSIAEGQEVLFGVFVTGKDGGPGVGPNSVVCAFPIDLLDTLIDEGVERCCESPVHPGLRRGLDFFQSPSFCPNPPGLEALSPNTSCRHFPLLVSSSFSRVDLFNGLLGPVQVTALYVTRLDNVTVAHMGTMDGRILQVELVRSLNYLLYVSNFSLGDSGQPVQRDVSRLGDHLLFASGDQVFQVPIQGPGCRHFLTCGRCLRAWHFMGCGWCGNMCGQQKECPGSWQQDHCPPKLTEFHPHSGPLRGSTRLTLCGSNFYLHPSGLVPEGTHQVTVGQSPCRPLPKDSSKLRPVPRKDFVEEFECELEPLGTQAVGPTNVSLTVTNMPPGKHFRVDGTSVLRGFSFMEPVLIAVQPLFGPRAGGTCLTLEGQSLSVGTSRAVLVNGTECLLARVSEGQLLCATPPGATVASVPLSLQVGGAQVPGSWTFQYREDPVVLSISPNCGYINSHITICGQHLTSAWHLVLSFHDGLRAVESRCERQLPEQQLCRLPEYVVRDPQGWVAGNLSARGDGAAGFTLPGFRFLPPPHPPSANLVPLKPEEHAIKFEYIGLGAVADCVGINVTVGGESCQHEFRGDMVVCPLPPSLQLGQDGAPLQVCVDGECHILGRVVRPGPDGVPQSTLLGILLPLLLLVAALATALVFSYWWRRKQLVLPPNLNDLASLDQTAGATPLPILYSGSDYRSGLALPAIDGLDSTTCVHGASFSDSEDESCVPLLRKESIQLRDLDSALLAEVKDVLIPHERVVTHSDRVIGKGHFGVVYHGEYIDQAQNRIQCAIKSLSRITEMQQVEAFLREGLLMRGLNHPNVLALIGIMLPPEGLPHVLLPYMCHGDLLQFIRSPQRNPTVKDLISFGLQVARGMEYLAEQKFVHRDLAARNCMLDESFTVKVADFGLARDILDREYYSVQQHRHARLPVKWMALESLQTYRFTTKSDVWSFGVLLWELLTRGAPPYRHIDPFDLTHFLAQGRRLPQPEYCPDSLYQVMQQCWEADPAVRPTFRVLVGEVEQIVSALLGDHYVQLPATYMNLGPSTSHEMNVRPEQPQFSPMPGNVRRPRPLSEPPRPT

On to `Cc1csc(-c2nnc(Nc3ccc(Oc4ncccc4-c4ccnc(N)n4)cc3)c3ccccc23)c1` [AMG-900], for which the Kd in assay [1], in assay [2], in assay [3], in assay [4] and in assay [5] was > 30 µM (inactive) in each case.
Regarding `O=C(Nc1c[nH]nc1-c1nc2cc(CN3CCOCC3)ccc2[nH]1)NC1CC1` [AT-9283], the Kd in assay [1] is 0.084 µM (active); in assay [2] it was > 30 µM (inactive); in assay [3], > 30 µM (inactive); in assay [4], > 30 µM (inactive); in assay [5] it was > 30 µM (inactive).
In the case of `C=CC(=O)Nc1cc2c(Nc3ccc(F)c(Cl)c3)ncnc2cc1C#CC(C)(C)N1CCN(C)CC1` [AV-412 FREE BASE], the Kd in assay [1], in assay [2], in assay [3], in assay [4] and in assay [5] was > 30 µM (inactive) in each case.
For `COc1cc([C@@H]2c3cc4c(cc3[C@H](O)[C@H]3COC(=O)[C@@H]23)OCO4)cc(OC)c1OC` [AXL-1717], the Kd in assay [1], in assay [2], in assay [3], in assay [4] and in assay [5] was > 30 µM (inactive) in each case.
In the case of `Cc1cc(C(=O)NOCCO)c(Nc2ccc(I)cc2F)n(C)c1=O` [AZD-8330], the Kd in assay [1], in assay [2], in assay [3], in assay [4] and in assay [5] was > 30 µM (inactive) each time.
For `Cn1cnc2c(F)c(Nc3ccc(Br)cc3F)c(C(=O)NOCCO)cc21` [BINIMETINIB], the Kd in assay [1], in assay [2], in assay [3], in assay [4] and in assay [5] was > 30 µM (inactive) each time.
`CCn1c(C(=O)N(C2CC2)C2CC2)cc2c3c(ncn3C)c(Nc3cc(C)n(C)n3)nc21` [BMS-911543]: the Kd in assay [1], in assay [2], in assay [3], in assay [4] and in assay [5] was > 30 µM (inactive) each time.
For the molecule `COc1cc2ncnc(Oc3cccc(NC(=O)Nc4cc(C(C)(C)C(F)(F)F)on4)c3)c2cc1OC` [CEP-32496], the Kd in assay [1], in assay [2], in assay [3], in assay [4] and in assay [5] was > 30 µM (inactive) in each case.
Consider `Cc1cc(Nc2ncc(Cl)c(Nc3ccccc3S(=O)(=O)C(C)C)n2)c(OC(C)C)cc1C1CCNCC1` [CERITINIB], for which the Kd in assay [1], in assay [2], in assay [3], in assay [4] and in assay [5] was > 30 µM (inactive) each time.
On to `COc1c(OCCCN2CCOCC2)ccc2c1N=C(NC(=O)c1cnc(N)nc1)N1CCN=C21` [COPANLISIB], for which the Kd in assay [1], in assay [2], in assay [3], in assay [4] and in assay [5] was > 30 µM (inactive) in each case.
For the molecule `COCC(=O)NC/C=C/c1ccc2ncnc(Nc3ccc(Oc4ccc(C)nc4)c(C)c3)c2c1` [CP-724714], the Kd in assay [1], in assay [2], in assay [3], in assay [4] and in assay [5] was > 30 µM (inactive) throughout.
Consider `C#Cc1cccc(Nc2ncnc3cc(OC)c(OCCCCCCC(=O)NO)cc23)c1` [CUDC-101], for which the Kd in assay [1], in assay [2], in assay [3], in assay [4] and in assay [5] was > 30 µM (inactive) in each case.
Turning to `CCS(=O)(=O)N1CCN(c2ccc(Nc3ncc(C(N)=O)c(NC4CC4)n3)cc2)CC1` [Cerdulatinib Hydrochloride], the Kd was 0.701 µM (active) in assay [1]; > 30 µM (inactive) in assay [2]; > 30 µM (inactive) in assay [3]; 2.22 µM (active) in assay [4]; > 30 µM (inactive) in assay [5].
For `Cc1nc2cc(-n3ncc(C(=O)c4cc5ccccc5[nH]4)c3N)ccc2[nH]1` [FGFR INHIBITOR DEBIO 1347], the Kd in assay [1], in assay [2], in assay [3], in assay [4] and in assay [5] was > 30 µM (inactive) each time.
As to `O=C(Nc1nc2cccc(-c3ccc(CN4CCS(=O)(=O)CC4)cc3)n2n1)C1CC1` [FILGOTINIB], the Kd in assay [1], in assay [2], in assay [3], in assay [4] and in assay [5] was > 30 µM (inactive) throughout.
`Cc1cccc(-c2nn3c(c2-c2ccnc4ccc(C(N)=O)cc24)CCC3)n1` [GALUNISERTIB]: the Kd in assay [1], in assay [2], in assay [3], in assay [4] and in assay [5] was > 30 µM (inactive) throughout.
Regarding `COc1ccc(S(=O)(=O)N(C(C)=O)c2ccccc2/C=C/c2cc[n+]([O-])cc2)cc1` [HMN-214], the Kd in assay [1], in assay [2], in assay [3], in assay [4] and in assay [5] was > 30 µM (inactive) in each case.
Consider `CNC(=O)c1cccc2cc(Oc3ccnc4cc(OCC5(N)CC5)c(OC)cc34)ccc12` [LUCITANIB], for which the Kd in assay [1], in assay [2], in assay [3], in assay [4] and in assay [5] was > 30 µM (inactive) in each case.
